Values of other authors as cited in US20260373126A1, “COMPOSITIONS AND METHODS OF TREATING CANCER” (Board of Supervisors of Louisiana State University and …, priority 2022, published 2026).

Test system: mitochondrial respiration
Details: reference 2

CC(C)OC(=O)C(C)(C)Oc1ccc(C(=O)c2ccc(Cl)cc2)cc1 [FF, Fenofibrate]
mitochondrial respiration: blocked mitochondrial respiration
